Experiments:
Format in all cases: functional
Mus musculus [1] = experiment: Anticonvulsant activity expressed as minimum ataxic dose (MAD) at which mice fell off inverted screen at 30 min post administration
Mus musculus [2] = experiment: Anticonvulsant activity expressed as minimum effective dose (MED) against tonic extension produced by maximal electroshock (MES) at 30 min post administration in mice; conditions: 0.5 h, read-out: MED
Rattus norvegicus [3] = experiment: Anticonvulsant activity was determined in rat (administered perorally) tested for 4 hours using ataxia test; conditions: po
Mus musculus [4] = experiment: Anticonvulsant activity was determined in mouse (administered intraperitoneally) tested for 0.5 hours using maximal electroshock test (ADD program); conditions: ip
Mus musculus [5] = experiment: Anticonvulsant activity was determined in mouse (administered perorally) tested for 1 hour using maximal electroshock test; conditions: po
Mus musculus [6] = experiment: Anticonvulsant activity was determined in mouse (administered intraperitoneally) for 0.5 hours using maximal electroshock test (ADD program); conditions: ip
Mus musculus [7] = experiment: Anticonvulsant activity was determined in mouse (administered perorally) tested for 0.5 hours using inverted wire mesh ataxia test; conditions: po
Mus musculus [8] = experiment: Anticonvulsant activity was determined in mouse (administered perorally) tested for 0.5 hours using maximal electroshock test (ADD program); conditions: po
Mus musculus [9] = experiment: Anticonvulsant activity was determined in mouse (administered intraperitoneally) tested for 0.5 hours using maximal electroshock test; conditions: ip
Mus musculus [10] = experiment: Anticonvulsant activity was determined in mouse (administered intraperitoneally) tested for 0.5 hours using inverted wire mesh ataxia test; conditions: ip
Rattus norvegicus [11] = experiment: Anticonvulsant activity was determined in rat (administered perorally) tested for 0.5 hours using maximal electroshock test; conditions: po
Mus musculus [12] = experiment: Anticonvulsant activity was determined in mouse (administered perorally) tested for 1 hour using rotarod ataxia test (ADD program); conditions: po
Mus musculus [13] = experiment: Anticonvulsant activity was determined in mouse (administered intraperitoneally) for 0.5 hours using maximal electroshock test; conditions: ip
Mus musculus [14] = experiment: Anticonvulsant activity was determined in mouse (administered perorally) for 0.5 hours using maximal electroshock test (ADD) program; conditions: po
Mus musculus [15] = experiment: Anticonvulsant activity was determined in mouse (administered intraperitoneally) for 0.5 hours using rotarod ataxia test (ADD program); conditions: ip
Mus musculus [16] = experiment: Anticonvulsant activity was determined in mouse (administered intraperitoneally) tested for 0.5 hours using rotarod ataxia test (ADD program); conditions: ip
Mus musculus [17] = experiment: Anticonvulsant activity was determined in mouse (administered intraperitoneally) for 0.5 hours using inverted wire mesh ataxia test; conditions: ip
Mus musculus [18] = experiment: Anticonvulsant activity was determined in mouse (administered perorally) tested for 2.0 hours using maximal electroshock test; conditions: po
Mus musculus [19] = experiment: Anticonvulsant activity was determined in mouse (administered intraperitoneally) tested for 2.0 hours using maximal electric shock test (ADD program); conditions: ip
Mus musculus [20] = experiment: Anticonvulsant activity was determined in mouse (administered intraperitoneally) tested for 2.0 hours using inverted wire mesh ataxia test; conditions: ip
Mus musculus [21] = experiment: Anticonvulsant activity was determined in mouse (administered perorally) tested for 2.0 hours using maximal electric shock test (ADD program); conditions: po
Mus musculus [22] = experiment: Anticonvulsant activity was determined in mouse administered perorally tested for 2.0 hours using maximal electric shock test; conditions: po
Mus musculus [23] = experiment: Anticonvulsant activity was determined in mouse (administered perorally) tested for 2.0 hours using inverted wire mesh ataxia test; conditions: po
Mus musculus [24] = experiment: Anticonvulsant activity was determined in mouse (administered perorally) tested for 2.0 hours using rotarod ataxia test (ADD program); conditions: po
Mus musculus [25] = experiment: Anticonvulsant activity was determined in mouse (administered intraperitoneally) tested for 2.0 hours using maximal electroshock test.; conditions: ip
Mus musculus [26] = experiment: Anticonvulsant activity was determined in mouse (administered intraperitoneally) tested for 2.0 hours using rotarod ataxia test (ADD program); conditions: ip
Mus musculus [27] = experiment: Anticonvulsant activity was determined in mouse (administered intraperitoneally) tested for 2.0 hours using maximal electroshock test (ADD program); conditions: ip
Mus musculus [28] = experiment: Anticonvulsant activity was determined in mouse (administered intraperitoneally) tested for 2.0 hours using electroshock test; conditions: ip

CC(C)COc1cccc(N2CCCNCC2)n1
MAD (Mus musculus [1]): 100 mg/kg | minimal effective dose (Mus musculus [2]): 30 mg/kg

c1cc(OCC2CCCCC2)nc(N2CCNCC2)c1
MAD (Mus musculus [1]): 30 mg/kg | minimal effective dose (Mus musculus [2]): 30 mg/kg

CC(C)COc1cccc(N2CCN(C)CC2)n1
MAD (Mus musculus [1]): 30 mg/kg | minimal effective dose (Mus musculus [2]): 30 mg/kg

CC(C)COc1cccc(N2CCCCC2)n1
MAD (Mus musculus [1]): >300 mg/kg | minimal effective dose (Mus musculus [2]): > 300 mg/kg

Oc1cccc(N2CCNCC2)n1
MAD (Mus musculus [1]): >300 mg/kg | minimal effective dose (Mus musculus [2]): > 300 mg/kg

CC(C)Oc1cccc(N2CCNCC2)n1
MAD (Mus musculus [1]): <10 mg/kg | minimal effective dose (Mus musculus [2]): 30 mg/kg

c1cc(OCC2CC2)nc(N2CCNCC2)c1
MAD (Mus musculus [1]): 10 mg/kg | minimal effective dose (Mus musculus [2]): 10 mg/kg

CN(C)CCOc1cccc(N2CCNCC2)n1
MAD (Mus musculus [1]): >300 mg/kg | minimal effective dose (Mus musculus [2]): > 300 mg/kg

CC(C)COc1cccc(NCCN(C)C)n1
MAD (Mus musculus [1]): 300 mg/kg | minimal effective dose (Mus musculus [2]): 100 mg/kg

COc1cccc(N2CCNCC2)n1
MAD (Mus musculus [1]): 10 mg/kg | minimal effective dose (Mus musculus [2]): 30 mg/kg

c1cc(OC2CCCCC2)nc(N2CCNCC2)c1
MAD (Mus musculus [1]): 10 mg/kg | minimal effective dose (Mus musculus [2]): 30 mg/kg

CC(C)COc1cccc(N2CCNCC2)n1
ED10 (Rattus norvegicus [3]): 340 mg/kg | ED50 (Rattus norvegicus [3]): 525 mg/kg | ED90 (Rattus norvegicus [3]): 830 mg/kg | MAD (Mus musculus [1]): 30 mg/kg | ED10 (Mus musculus [4]): 5 mg/kg | ED90 (Mus musculus [4]): 11.2 mg/kg | ED10 (Mus musculus [5]): 7.6 mg/kg | ED50 (Mus musculus [5]): 11.1 mg/kg | ED90 (Mus musculus [5]): 17 mg/kg | ED50 (Mus musculus [6]): 7.5 mg/kg | ED10 (Mus musculus [7]): 11 mg/kg | ED50 (Mus musculus [7]): 35 mg/kg | ED90 (Mus musculus [7]): 114 mg/kg | ED10 (Mus musculus [8]): 10.7 mg/kg | ED90 (Mus musculus [8]): 35 mg/kg | ED10 (Mus musculus [9]): 5.4 mg/kg | ED90 (Mus musculus [9]): 10.7 mg/kg | minimal effective dose (Mus musculus [2]): 10 mg/kg | ED10 (Mus musculus [10]): 6.6 mg/kg | ED90 (Mus musculus [10]): 39 mg/kg | ED10 (Rattus norvegicus [11]): 6.6 mg/kg | ED50 (Rattus norvegicus [11]): 36 mg/kg | ED90 (Rattus norvegicus [11]): 195 mg/kg | ED10 (Mus musculus [12]): 115 mg/kg | ED50 (Mus musculus [12]): 139 mg/kg | ED90 (Mus musculus [12]): 164 mg/kg | ED50 (Mus musculus [13]): 7.5 mg/kg | ED50 (Mus musculus [14]): 19 mg/kg | ED50 (Mus musculus [15]): 46 mg/kg | ED10 (Mus musculus [16]): 30 mg/kg | ED90 (Mus musculus [16]): 69 mg/kg | ED50 (Mus musculus [17]): 16 mg/kg

CCOc1cccc(N2CCNCC2)n1
MAD (Mus musculus [1]): 10 mg/kg | minimal effective dose (Mus musculus [2]): 30 mg/kg

CC(C)COc1cccc(N2CCOCC2)n1
MAD (Mus musculus [1]): 300 mg/kg | minimal effective dose (Mus musculus [2]): 300 mg/kg

O=C1NC(=O)C(c2ccccc2)(c2ccccc2)N1 [PHENYTOIN]
ED50 (Rattus norvegicus [3]): > 3000 mg/kg | ED10 (Mus musculus [18]): 4.9 mg/kg | ED90 (Mus musculus [18]): 14 mg/kg | ED90 (Mus musculus [19]): 13 mg/kg | ED10 (Mus musculus [20]): 33 mg/kg | ED50 (Mus musculus [20]): 45 mg/kg | ED90 (Mus musculus [20]): 63 mg/kg | ED50 (Mus musculus [21]): 9.8 mg/kg | ED50 (Mus musculus [22]): 8.3 mg/kg | ED50 (Rattus norvegicus [11]): 33 mg/kg | ED10 (Mus musculus [23]): 50 mg/kg | ED50 (Mus musculus [23]): 78 mg/kg | ED90 (Mus musculus [23]): 125 mg/kg | ED50 (Mus musculus [24]): 95 mg/kg | ED10 (Mus musculus [25]): 3.7 mg/kg | ED90 (Mus musculus [25]): 15 mg/kg | ED10 (Mus musculus [26]): 60 mg/kg | ED50 (Mus musculus [26]): 71 mg/kg | ED90 (Mus musculus [26]): 86 mg/kg | ED10 (Mus musculus [27]): 8.4 mg/kg | ED50 (Mus musculus [27]): 10.4 mg/kg | ED50 (Mus musculus [28]): 7.4 mg/kg
